Experimental data taken from patent publication US20050209278A1, “Piperidinyl- and piperazinyl-sulfonylmethyl hydroxamic acids and their use as protease inhibitors” (priority 2002, published 2005).
Like-named read-outs stand apart in the source and are kept apart here.

Legend:
MMP-2 = target: T1, MMP-2 (Homo sapiens, UniProt P08253); test: MMP-2 inhibition (in vitro Ki); type: biochemical
T1 construct: made in house; host or cells: MMP-2-transfected p2AHT2 cells
T1 sequence (P08253 110-660): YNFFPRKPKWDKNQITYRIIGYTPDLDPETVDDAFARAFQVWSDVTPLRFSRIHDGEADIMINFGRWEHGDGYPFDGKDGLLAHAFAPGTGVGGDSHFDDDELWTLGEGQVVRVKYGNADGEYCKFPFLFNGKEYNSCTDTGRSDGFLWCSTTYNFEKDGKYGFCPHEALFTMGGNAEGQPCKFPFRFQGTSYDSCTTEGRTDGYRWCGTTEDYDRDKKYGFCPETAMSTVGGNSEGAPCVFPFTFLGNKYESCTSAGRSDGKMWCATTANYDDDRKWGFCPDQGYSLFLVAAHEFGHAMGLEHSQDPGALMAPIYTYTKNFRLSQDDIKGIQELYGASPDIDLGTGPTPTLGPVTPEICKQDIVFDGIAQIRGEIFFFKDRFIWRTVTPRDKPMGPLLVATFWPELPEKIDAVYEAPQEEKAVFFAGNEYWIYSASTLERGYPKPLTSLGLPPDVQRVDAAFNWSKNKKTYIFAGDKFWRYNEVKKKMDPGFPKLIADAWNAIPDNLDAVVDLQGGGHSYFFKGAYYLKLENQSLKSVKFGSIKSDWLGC

MMP-14 = target: T2, MMP-14 (Homo sapiens, UniProt P50281); test: MMP-14 inhibition (in vitro Ki); type: biochemical
T2 construct: The catalytic domain enzyme was expressed in E. coli inclusion bodies, solubilized in urea; made in house

MMP-1 = target: T3, MMP-1 (Homo sapiens, UniProt P03956); test: MMP-1 inhibition (in vitro Ki); type: biochemical
T3 construct: made in house; host or cells: MMP-1-transfected HT-1080 cells (spent media)
T3 sequence (P03956 100-469): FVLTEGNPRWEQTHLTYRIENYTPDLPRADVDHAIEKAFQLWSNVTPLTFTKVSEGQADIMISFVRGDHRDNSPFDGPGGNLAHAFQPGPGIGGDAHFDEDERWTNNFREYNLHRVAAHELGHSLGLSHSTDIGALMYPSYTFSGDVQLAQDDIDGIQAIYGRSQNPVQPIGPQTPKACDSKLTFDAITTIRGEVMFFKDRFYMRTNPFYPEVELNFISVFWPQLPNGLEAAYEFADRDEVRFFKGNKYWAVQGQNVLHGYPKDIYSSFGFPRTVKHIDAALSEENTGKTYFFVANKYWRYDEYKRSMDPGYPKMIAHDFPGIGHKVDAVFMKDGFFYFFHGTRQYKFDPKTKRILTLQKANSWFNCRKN

MMP-9 = target: T4, MMP-9 (Homo sapiens, UniProt P14780); test: MMP-9 inhibition (in vitro Ki); type: biochemical
T4 construct: made in house; host or cells: MMP-9-transfected HT1080 cells (spent media)
T4 sequence (P14780 107-707 limits assumed): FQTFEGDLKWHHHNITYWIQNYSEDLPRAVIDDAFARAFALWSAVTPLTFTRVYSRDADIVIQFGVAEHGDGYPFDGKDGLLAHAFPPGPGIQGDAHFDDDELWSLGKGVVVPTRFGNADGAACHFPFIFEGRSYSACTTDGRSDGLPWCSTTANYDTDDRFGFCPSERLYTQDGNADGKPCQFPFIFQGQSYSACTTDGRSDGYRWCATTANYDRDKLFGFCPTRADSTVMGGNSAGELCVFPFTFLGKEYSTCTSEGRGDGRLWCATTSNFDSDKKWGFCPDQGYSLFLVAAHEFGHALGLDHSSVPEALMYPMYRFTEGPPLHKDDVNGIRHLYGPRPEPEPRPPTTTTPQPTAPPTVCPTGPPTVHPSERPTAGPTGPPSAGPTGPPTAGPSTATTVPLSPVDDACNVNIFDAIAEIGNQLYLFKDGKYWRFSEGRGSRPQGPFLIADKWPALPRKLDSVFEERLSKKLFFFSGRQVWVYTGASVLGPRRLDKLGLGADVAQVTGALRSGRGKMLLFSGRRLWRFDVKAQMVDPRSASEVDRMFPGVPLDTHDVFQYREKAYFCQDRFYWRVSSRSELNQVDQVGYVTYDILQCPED

MMP-13 = target: T5, MMP-13 (Homo sapiens, UniProt P45452); test: MMP-13 inhibition (in vitro Ki); type: biochemical
T5 construct: made in house; host or cells: baculovirus / insect cells

[1] = system: solid tumor cancers (colorectal, pancreatic, ovarian, and prostate); conditions: cited from earlier work
[2] = Table 9, read-out: MMP-2 Ki (IC-50)
[3] = Table 9, read-out: MMP-14 Ki (IC-50)
[4] = Table 9, read-out: MMP-1 Ki (IC-50)
[5] = Table 9, read-out: MMP-9 Ki (IC-50)
[6] = Table 9, read-out: MMP-13 Ki (IC-50)

Compound | Ki (MMP-2; [2]) [nM] | Ki (MMP-14; [3]) [nM] | Ki (MMP-1; [4]) [nM] | Ki (MMP-9; [5]) [nM] | Ki (MMP-13; [6]) [nM] | Ki (MMP-2; Table 10, read-out: MMP-2 Ki) [nM] | Ki (MMP-14; Table 10, read-out: MMP-14 Ki) [nM] | Ki (MMP-1; Table 10, read-out: MMP-1 Ki) [nM] | Ki (MMP-9; Table 10, read-out: MMP-9 Ki) [nM] | Ki (MMP-13; Table 10, read-out: MMP-13 Ki) [nM] | most common drug-related toxicity ([1]; clinical trials in patients) | effect on cancer-specific antigens used as surrogate markers for biological activity ([1]; patients with advanced, rapidly progressive, treatment-refractory solid tumor cancers)
O=C(NO)C1(S(=O)(=O)N2CCC(c3cnc(OCC(F)(F)C(F)F)cn3)CC2)CCOCC1 [Example A206] | 0.71 | 5750 | 4460 | 0.84 | 0.9 |  |  |  |  |  |  | 
O=C(/C=C/C=C/C1CCN(S(=O)(=O)C2(C(=O)NO)CCOCC2)CC1)N1CCOCC1 [Example A208] | 178 | > 10000 | 7360 | 1590 | 1.94 |  |  |  |  |  |  | 
CNC(=O)[C@@H](NC(=O)[C@H](CC(C)C)[C@H](O)C(=O)NO)C(C)(C)C [Marimastat] |  |  |  |  |  |  |  |  |  |  | musculoskeletal pain and stiffness | dose-related reduction in the rise of cancer-specific antigens

Now from value to compound, other results behind:

Ki (MMP-2; [2]) [nM] | Ki (MMP-14; [3]) [nM] | Ki (MMP-1; [4]) [nM] | Ki (MMP-9; [5]) [nM] | Ki (MMP-13; [6]) [nM] | Ki (MMP-2; Table 10, read-out: MMP-2 Ki) [nM] | Ki (MMP-14; Table 10, read-out: MMP-14 Ki) [nM] | Ki (MMP-1; Table 10, read-out: MMP-1 Ki) [nM] | Ki (MMP-9; Table 10, read-out: MMP-9 Ki) [nM] | Ki (MMP-13; Table 10, read-out: MMP-13 Ki) [nM] | Compound | most common drug-related toxicity ([1]; clinical trials in patients) | effect on cancer-specific antigens used as surrogate markers for biological activity ([1]; patients with advanced, rapidly progressive, treatment-refractory solid tumor cancers)
 |  |  |  |  | 30.7 | > 10000 | 482 | 380 | 0.229 | O=C(CCCCC1CCN(S(=O)(=O)C2(C(=O)NO)CCOCC2)CC1)N1CCc2ccccc21 [Example B1, (4-({4-[5-(2,3-dihydro-1H-indol-1-yl)-5-oxopentyl]piperidin-1-yl}sulfonyl)-N-hydroxytetrahydro-2H-pyran-4-carboxamide)] |  | 
 |  |  |  |  | 1.21 | 1540 | 2910 | 0.483 | 1.07 | CCC(CC)(C(=O)NO)S(=O)(=O)N1CCC(Oc2ccc(SC(F)(F)F)cc2)CC1 [Example B2, 2-ethyl-N-hydroxy-2-[(4-{4-[(trifluoromethyl)thio]phenoxy}piperidin-1-yl)sulfonyl]butanamide] |  | 
 |  |  |  |  | 0.791 | 1950 | > 10000 | 0.332 | 0.985 | COCCC(C(=O)NO)S(=O)(=O)N1CCC(Oc2ccc(SC(F)(F)F)cc2)CC1 (centres unmarked) [Example B3, N-hydroxy-4-methoxy-2-[(4-{4-[(trifluoromethyl)thio]phenoxy}piperidin-1-yl)sulfonyl]butanamide] |  | 
 |  |  |  |  | 0.654 | 1640 | 2060 | 0.181 | 0.45 | COCCC(CCOC)(C(=O)NO)S(=O)(=O)N1CCC(Oc2ccc(SC(F)(F)F)cc2)CC1 [Example B4, N-hydroxy-4-methoxy-2-(2-methoxyethyl)-2-[(4-{4-[(trifluoromethyl)thio]phenoxy}piperidin-1-yl)sulfonyl]butanamide] |  | 
